Laboratory results reported in PMC7865522, “Analyzing Kinase Similarity in Small Molecule and Protein Structural Space to Explore the Limits of Multi-Target Screening” (Molecules, 2021).

Columns and labels:
VEGFR2 = target: T1, VEGFR2 (Homo sapiens, UniProt P35968); assay: DiscoverX KINOMEscan competition binding assay; details: compound 10 µM, lower values = higher affinity, below 35% = significant binding
T1 construct: purchased DiscoverX (KINOMEscan service); host or cells: E. coli BL21-derived host (T7 phage) or HEK-293
Description: (§1) Ligand binding experiments for the molecules selected from Profiles 1 and 2 towards nine kinases (EGFR, ErbB2, LCK, CDK2, BRAF, MET, p38α, PI3K and VEGFR2) and for molecules selected from Profiles 3 and 4 towards four kinases (EGFR, ErbB2, BRAF and VEGFR2) were carried out by DiscoverX using the supplied protocol as described in the Supplementary Materials. Briefly, ligand affinity was measured by competition with a resin-bound standard ligand and washed-off kinase concentration was determined via qPCR.
(§2) Summarizing, binding of a compound to a kinase was tested in comparison to a control compound (see Table S2). […]
(§3) 1.1. DiscoverX kinase assay
(§4) For most assays, kinase-tagged T7 phage strains were grown in parallel in 24-well blocks in an E.coli host derived from the BL21 strain. E.coli were grown to log-phase and infected with T7 phage from a frozen stock (multiplicity of infection = 0.4) and incubated with shaking at 32°C until lysis (90-150 minutes). The lysates were centrifuged (6,000 x g) and ﬁltered (0.2µm) to remove cell debris.
(§5) The remaining kinases were produced in HEK-293 cells and subsequently tagged with DNA for qPCR detection. Streptavidin-coated magnetic beads were treated with biotinylated small molecule ligands for 30 minutes at room temperature to generate afﬁnity resins for the kinases. The liganded beads were blocked with excess biotin and washed with blocking buffer (SeaBlock [Pierce], 1% BSA, 0.05% Tween 20, 1 mM DTT) to remove unbound ligands and to reduce non-speciﬁc phage binding. Binding reactions were assembled by combining kinases, liganded afﬁnity beads, and test compounds in 1x binding buffer (20% SeaBlock, 0.17x PBS, 0.05% Tween 20, 6 mM DTT). Test compounds were prepared as 40x stocks in 100% DMSO and directly diluted into the assay. All reactions were performed in polypropylene 384-well plates in a ﬁnal volume of 0.02 ml. The assay plates were incubated at room temperature with shaking for 1 hour and the afﬁnity beads were washed with wash buffer (1x PBS, 0.05% Tween 20). The beads were then re-suspended in elution buffer (1x PBS, 0.05% Tween 20, 0.5 µM non-biotinylated afﬁnity ligand) and incubated at room temperature with shaking for 30 minutes. The kinase concentration in the eluates was measured by qPCR. […]
(§6) Table S2. Experimental % control values from the DiscoverX kinase assay. Compounds were tested against the nine kinases EGFR, ErbB2, LCK, CDK2, BRAF, MET, p38α, PI3K and VEGFR2, unless otherwise stated. Binding of kinase and compound were tested at a compound concentration of 10 µM and in comparison to a control compound. Lower values indicate a higher afﬁnity of the compound to the protein and values below 35% indicate signiﬁcant binding according to information of the CRO. […]
(§7) a Compounds were only tested against four kinases (EGFR, ErbB2, BRAF and VEGFR2). b Compound was selected independently from two docking proﬁles and tested separately during

p38α = target: T2, p38α (Homo sapiens, UniProt Q16539); assay: DiscoverX KINOMEscan competition binding assay; details: compound 10 µM; lower values = higher affinity; below 35% = significant binding
T2 construct: purchased DiscoverX (KINOMEscan service); host or cells: E. coli BL21-derived host (T7 phage) or HEK-293
T2 sequence (Q16539 whole entry): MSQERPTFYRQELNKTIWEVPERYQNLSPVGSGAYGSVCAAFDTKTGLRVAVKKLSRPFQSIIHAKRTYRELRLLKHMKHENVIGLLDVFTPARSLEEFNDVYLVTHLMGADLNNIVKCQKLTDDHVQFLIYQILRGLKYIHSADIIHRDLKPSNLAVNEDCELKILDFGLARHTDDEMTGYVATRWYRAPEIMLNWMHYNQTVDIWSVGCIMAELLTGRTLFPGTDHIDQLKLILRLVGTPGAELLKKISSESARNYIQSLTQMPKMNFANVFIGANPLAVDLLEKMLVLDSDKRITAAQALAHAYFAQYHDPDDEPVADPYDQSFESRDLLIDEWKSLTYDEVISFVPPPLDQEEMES
Description: as §1, §2, §3, §4, §5, §6, §7

MET = target: T3, MET (Homo sapiens, UniProt P08581); assay: DiscoverX KINOMEscan competition binding assay; details: compound 10 µM; lower values = higher affinity; below 35% = significant binding
T3 construct: purchased DiscoverX (KINOMEscan service); host or cells: E. coli BL21-derived host (T7 phage) or HEK-293
T3 sequence (P08581 25-1390): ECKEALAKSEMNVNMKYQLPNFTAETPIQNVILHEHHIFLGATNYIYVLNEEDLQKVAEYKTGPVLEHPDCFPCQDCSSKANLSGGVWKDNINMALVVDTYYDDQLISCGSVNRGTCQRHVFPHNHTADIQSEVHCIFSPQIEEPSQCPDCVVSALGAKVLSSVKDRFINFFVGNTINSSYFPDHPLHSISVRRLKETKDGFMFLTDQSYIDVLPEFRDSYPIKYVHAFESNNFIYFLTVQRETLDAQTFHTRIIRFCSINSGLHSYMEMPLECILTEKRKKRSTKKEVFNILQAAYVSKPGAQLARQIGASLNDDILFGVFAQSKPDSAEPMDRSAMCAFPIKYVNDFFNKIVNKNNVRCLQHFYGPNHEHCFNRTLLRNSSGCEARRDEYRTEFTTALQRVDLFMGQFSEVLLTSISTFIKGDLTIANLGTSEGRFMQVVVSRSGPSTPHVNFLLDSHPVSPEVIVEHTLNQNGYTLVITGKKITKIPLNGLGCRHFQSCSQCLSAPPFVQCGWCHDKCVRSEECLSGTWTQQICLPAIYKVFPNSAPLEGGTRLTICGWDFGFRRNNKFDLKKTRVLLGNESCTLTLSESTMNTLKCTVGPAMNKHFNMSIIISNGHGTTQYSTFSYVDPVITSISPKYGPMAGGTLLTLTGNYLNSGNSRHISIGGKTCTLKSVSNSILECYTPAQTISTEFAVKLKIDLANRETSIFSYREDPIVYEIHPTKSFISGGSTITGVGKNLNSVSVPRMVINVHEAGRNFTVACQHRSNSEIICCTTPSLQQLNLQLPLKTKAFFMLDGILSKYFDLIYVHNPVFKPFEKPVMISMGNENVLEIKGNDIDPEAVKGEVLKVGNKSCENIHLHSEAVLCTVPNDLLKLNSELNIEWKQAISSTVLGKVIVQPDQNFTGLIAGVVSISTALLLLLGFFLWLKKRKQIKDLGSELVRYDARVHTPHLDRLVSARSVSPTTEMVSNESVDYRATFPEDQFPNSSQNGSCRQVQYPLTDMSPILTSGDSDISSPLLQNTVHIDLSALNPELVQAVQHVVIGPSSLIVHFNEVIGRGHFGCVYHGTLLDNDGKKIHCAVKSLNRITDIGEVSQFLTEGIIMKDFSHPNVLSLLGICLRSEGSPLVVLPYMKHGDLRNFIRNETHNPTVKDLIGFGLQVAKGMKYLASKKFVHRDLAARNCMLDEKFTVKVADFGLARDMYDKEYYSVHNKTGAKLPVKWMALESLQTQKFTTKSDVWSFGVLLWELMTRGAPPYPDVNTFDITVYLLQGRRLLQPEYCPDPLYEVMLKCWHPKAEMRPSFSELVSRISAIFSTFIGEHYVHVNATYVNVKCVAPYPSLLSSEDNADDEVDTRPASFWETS
Description: as §1, §2, §3, §4, §5, §6, §7

EGFR [1] = target: T4, EGFR (Homo sapiens, UniProt P00533); assay: DiscoverX KINOMEscan competition binding assay; details: compound 10 µM; lower values = higher affinity; below 35% = significant binding
T4 construct: purchased DiscoverX (KINOMEscan service); host or cells: E. coli BL21-derived host (T7 phage) or HEK-293
Description: as §1, §2, §3, §4, §5, §6, §7

ErbB2 [2] = target: T5, ErbB2 (Homo sapiens, UniProt P04626); assay: DiscoverX KINOMEscan competition binding assay; details: compound 10 µM, lower values = higher affinity, below 35% = significant binding
T5 construct: purchased DiscoverX (KINOMEscan service); host or cells: E. coli BL21-derived host (T7 phage) or HEK-293
Description: as §1, §2, §3, §4, §5, §6, §7

LCK = target: T6, LCK (Homo sapiens, UniProt P06239); assay: DiscoverX KINOMEscan competition binding assay; details: compound 10 µM; lower values = higher affinity; below 35% = significant binding
T6 construct: purchased DiscoverX (KINOMEscan service); host or cells: E. coli BL21-derived host (T7 phage) or HEK-293
T6 sequence (P06239 whole entry): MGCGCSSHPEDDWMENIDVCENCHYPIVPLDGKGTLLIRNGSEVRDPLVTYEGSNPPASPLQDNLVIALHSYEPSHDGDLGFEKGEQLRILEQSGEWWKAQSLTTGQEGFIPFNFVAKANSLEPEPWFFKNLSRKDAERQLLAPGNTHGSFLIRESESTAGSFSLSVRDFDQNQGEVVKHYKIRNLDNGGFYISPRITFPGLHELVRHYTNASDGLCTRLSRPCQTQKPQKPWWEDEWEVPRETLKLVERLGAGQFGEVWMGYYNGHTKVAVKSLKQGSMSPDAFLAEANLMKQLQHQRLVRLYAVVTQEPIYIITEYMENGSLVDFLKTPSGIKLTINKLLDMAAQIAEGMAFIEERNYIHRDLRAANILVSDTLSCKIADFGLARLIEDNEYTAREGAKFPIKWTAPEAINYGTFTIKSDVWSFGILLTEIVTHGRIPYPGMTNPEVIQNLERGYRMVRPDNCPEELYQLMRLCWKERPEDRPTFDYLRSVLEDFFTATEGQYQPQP
Description: as §1, §2, §3, §4, §5, §6, §7

BRAF [3] = target: T7, BRAF (Homo sapiens, UniProt P15056); assay: DiscoverX KINOMEscan competition binding assay; details: compound 10 µM, lower values = higher affinity, below 35% = significant binding
T7 construct: purchased DiscoverX (KINOMEscan service); host or cells: E. coli BL21-derived host (T7 phage) or HEK-293
T7 sequence (P15056 whole entry): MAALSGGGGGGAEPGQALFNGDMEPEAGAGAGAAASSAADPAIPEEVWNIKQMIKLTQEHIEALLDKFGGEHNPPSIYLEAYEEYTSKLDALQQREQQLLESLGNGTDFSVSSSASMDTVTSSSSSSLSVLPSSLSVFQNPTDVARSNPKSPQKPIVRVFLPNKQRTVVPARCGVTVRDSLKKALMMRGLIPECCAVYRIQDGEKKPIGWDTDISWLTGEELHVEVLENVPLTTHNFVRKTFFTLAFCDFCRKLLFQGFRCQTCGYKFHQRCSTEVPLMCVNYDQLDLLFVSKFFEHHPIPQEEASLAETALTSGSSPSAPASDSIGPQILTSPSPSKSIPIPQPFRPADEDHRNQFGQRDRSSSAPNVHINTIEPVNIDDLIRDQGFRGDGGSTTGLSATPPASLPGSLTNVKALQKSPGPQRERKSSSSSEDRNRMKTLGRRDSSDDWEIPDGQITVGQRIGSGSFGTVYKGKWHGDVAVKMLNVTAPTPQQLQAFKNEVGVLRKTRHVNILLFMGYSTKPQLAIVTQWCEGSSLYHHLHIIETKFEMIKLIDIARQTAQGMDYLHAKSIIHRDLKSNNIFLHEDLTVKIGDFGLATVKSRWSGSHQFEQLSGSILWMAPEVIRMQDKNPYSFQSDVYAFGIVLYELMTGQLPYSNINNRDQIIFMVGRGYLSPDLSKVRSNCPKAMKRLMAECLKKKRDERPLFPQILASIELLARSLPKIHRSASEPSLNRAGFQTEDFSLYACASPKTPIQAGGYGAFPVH
Description: as §1, §2, §3, §4, §5, §6, §7

CDK2 = target: T8, CDK2 (Homo sapiens, UniProt P24941); assay: DiscoverX KINOMEscan competition binding assay; details: compound 10 µM; lower values = higher affinity; below 35% = significant binding
T8 construct: purchased DiscoverX (KINOMEscan service); host or cells: E. coli BL21-derived host (T7 phage) or HEK-293
Description: as §1, §2, §3, §4, §5, §6, §7

PI3K [4] = target: T9, PI3K (Homo sapiens, UniProt P42336); assay: DiscoverX KINOMEscan competition binding assay; design: purchased DiscoverX (KINOMEscan service); host or cells: E. coli BL21-derived host (T7 phage) or HEK-293; details: compound 10 µM; lower values = higher affinity; below 35% = significant binding
Description: as §1, §2, §3, §4, §5, §6, §7
Target sequence in this assay (P42336 whole entry): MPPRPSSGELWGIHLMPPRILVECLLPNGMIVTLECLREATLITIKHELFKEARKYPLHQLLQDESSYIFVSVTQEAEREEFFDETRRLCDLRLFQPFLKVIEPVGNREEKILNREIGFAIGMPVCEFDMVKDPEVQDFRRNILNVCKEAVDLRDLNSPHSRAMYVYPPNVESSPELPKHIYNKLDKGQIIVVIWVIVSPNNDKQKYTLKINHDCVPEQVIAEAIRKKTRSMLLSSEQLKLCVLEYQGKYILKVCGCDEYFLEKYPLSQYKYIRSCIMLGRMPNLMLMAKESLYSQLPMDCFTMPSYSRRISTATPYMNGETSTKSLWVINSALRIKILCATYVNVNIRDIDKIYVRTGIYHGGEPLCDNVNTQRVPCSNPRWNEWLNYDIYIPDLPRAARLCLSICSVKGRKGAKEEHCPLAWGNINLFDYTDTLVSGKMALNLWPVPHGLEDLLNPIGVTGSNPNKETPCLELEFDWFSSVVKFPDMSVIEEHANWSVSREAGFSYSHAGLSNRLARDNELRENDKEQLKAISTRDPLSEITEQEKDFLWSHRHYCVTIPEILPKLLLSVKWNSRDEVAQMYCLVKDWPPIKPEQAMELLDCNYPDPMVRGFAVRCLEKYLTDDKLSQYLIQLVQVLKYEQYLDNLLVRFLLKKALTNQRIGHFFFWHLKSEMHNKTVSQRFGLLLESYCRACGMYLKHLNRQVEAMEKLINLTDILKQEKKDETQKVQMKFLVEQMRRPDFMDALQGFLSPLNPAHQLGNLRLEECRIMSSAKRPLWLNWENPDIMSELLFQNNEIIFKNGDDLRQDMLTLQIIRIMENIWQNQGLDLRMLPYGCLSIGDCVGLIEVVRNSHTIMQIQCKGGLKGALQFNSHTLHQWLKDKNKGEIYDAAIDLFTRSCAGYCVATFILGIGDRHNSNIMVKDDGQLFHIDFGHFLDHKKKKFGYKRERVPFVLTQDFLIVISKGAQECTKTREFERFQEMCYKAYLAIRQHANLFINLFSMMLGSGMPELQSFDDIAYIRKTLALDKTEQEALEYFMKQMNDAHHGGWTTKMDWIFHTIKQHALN

EGFR [5] = target: T4, EGFR; assay: Eurofins in vitro kinase inhibition assay; type: biochemical; details: compound 20 µM; mean (SD); above 50% significant, 25-50% weak
Description: (§8) Kinase inhibition assays for EGFR, ErbB2, PI3K and BRAF were carried out by Eurofins Cerep following the protocols of Weber et al. (EGFR), Quian et al. (ErbB2), Sinnamon et al. (PI3K) and Kupcho et al. (BRAF). Briefly, except for PI3K, compounds were incubated with the respective kinase, ATP, and a substrate analog, and the effect of each compound on phosphorylation was measured. In the case of PI3K, the displacement of biotinylated PIP3 from a PIP3-binding complex by unlabelled PIP3 (produced from PIP2 by PI3K) was measured by Homogeneous Time Resolved Fluorescence (HTRF).
(§9) Finally, inhibition of the respective kinases is calculated as the percentage inhibition of control activity.
(§10) Table S3. Experimental results from the Euroﬁns assay. Inhibition of four kinases (EGFR, PI3K, ErbB2, BRAF) was measured at compound concentrations of 20 µM. Inhibition was calculated as % inhibition of control activity. According to CRO, values above 50% inhibition represent signiﬁcant inhibition, values above 25% weak inhibition effect and values below 25% as well as negative values are usually not signiﬁcant. Results are reported in mean (SD) format. […]
(§11) a Compound interfered with assay readout.

ErbB2 [6] = target: T5, ErbB2; assay: Eurofins in vitro kinase inhibition assay; type: biochemical; details: compound 20 µM; mean (SD); above 50% significant, 25-50% weak
Description: as §8, §9, §10, §11

BRAF [7] = target: T7, BRAF; assay: Eurofins in vitro kinase inhibition assay; type: biochemical; details: compound 20 µM; mean (SD); above 50% significant, 25-50% weak
Description: as §8, §9, §10, §11

PI3K [8] = target: T9, PI3K; assay: Eurofins in vitro kinase inhibition assay (HTRF, PIP3 displacement); type: biochemical; design: purchased Eurofins Cerep (contract assay); details: compound 20 µM; mean (SD); above 50% significant, 25-50% weak
Description: as §8, §9, §10, §11
Target sequence in this assay (P42336 whole entry): as above
Target sequence in this assay (P27986 whole entry partner): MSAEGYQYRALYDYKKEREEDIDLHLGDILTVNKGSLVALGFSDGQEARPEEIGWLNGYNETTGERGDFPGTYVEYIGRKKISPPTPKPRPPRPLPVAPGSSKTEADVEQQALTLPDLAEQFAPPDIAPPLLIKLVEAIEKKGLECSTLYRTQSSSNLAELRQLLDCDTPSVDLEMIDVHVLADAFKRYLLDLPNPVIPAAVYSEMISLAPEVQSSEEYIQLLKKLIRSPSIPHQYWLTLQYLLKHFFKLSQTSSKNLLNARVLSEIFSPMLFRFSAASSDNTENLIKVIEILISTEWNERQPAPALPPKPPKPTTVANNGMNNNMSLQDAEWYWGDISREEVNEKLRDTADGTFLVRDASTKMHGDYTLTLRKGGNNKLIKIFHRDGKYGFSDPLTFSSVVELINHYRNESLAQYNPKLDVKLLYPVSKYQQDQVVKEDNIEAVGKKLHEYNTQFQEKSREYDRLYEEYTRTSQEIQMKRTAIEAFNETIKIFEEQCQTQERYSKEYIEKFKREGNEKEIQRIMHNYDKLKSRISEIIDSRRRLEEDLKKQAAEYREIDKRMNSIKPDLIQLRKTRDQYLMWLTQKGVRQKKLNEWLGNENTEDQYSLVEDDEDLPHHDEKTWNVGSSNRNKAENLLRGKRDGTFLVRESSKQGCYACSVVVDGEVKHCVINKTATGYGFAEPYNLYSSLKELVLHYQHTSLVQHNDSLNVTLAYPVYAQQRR

SMILES	% control, VEGFR2 (DiscoverX) (VEGFR2)	% control, p38α (DiscoverX) (p38α)	% control, MET (DiscoverX) (MET)	% control, EGFR (DiscoverX) (EGFR [1])	% control, ErbB2 (DiscoverX) (ErbB2 [2])	% control, LCK (DiscoverX) (LCK)	% control, BRAF (DiscoverX) (BRAF [3])	% control, CDK2 (DiscoverX) (CDK2)	% control, PI3K (DiscoverX) (PI3K [4])	% inhibition of control activity, EGFR (Eurofins) (EGFR [5])	% inhibition of control activity, ErbB2 (Eurofins) (ErbB2 [6])	% inhibition of control activity, BRAF (Eurofins) (BRAF [7])	% inhibition of control activity, PI3K (Eurofins) (PI3K [8])	% control, VEGFR2 (DiscoverX) (VEGFR2; listed as K001MM009)	% control, ErbB2 (DiscoverX) (ErbB2 [2]; listed as K001MM009)	% control, BRAF (DiscoverX) (BRAF [3]; listed as K001MM009)
O=C1C[C@@H](c2noc(-c3ccc[nH]c3=O)n2)CN1Cc1ccccc1 [DS52225]	98 % control	100 % control	91 % control	100 % control	94 % control	100 % control	100 % control	100 % control	100 % control	22.7 (15.5) % inhibition	4.5 (4.9) % inhibition	-17.7 (15.6) % inhibition	0.9 (3.6) % inhibition			
Cc1[nH]c2nc3c(c(=O)n(Cc4ccccc4)c(=O)n3C)n2c1C [DS62156]	100 % control	97 % control	87 % control	90 % control	96 % control	100 % control	95 % control	100 % control	66 % control	16.6 (0.4) % inhibition	3.1 (3.3) % inhibition	-6.3 (1.6) % inhibition	1.5 (5.8) % inhibition			
COCCCNC(=O)c1nc2c3c4c(sc3ncn2n1)CCC[C@H]4C [DS66846]	100 % control	100 % control	92 % control	100 % control	96 % control	100 % control	100 % control	100 % control	100 % control	14.5 (8.6) % inhibition	-2.5 (1.6) % inhibition	-18.7 (11.9) % inhibition	4.6 (7.7) % inhibition			

Results, then the molecule that gave them:

% control, VEGFR2 (DiscoverX) (VEGFR2)	% control, p38α (DiscoverX) (p38α)	% control, MET (DiscoverX) (MET)	% control, EGFR (DiscoverX) (EGFR [1])	% control, ErbB2 (DiscoverX) (ErbB2 [2])	% control, LCK (DiscoverX) (LCK)	% control, BRAF (DiscoverX) (BRAF [3])	% control, CDK2 (DiscoverX) (CDK2)	% control, PI3K (DiscoverX) (PI3K [4])	% inhibition of control activity, EGFR (Eurofins) (EGFR [5])	% inhibition of control activity, ErbB2 (Eurofins) (ErbB2 [6])	% inhibition of control activity, BRAF (Eurofins) (BRAF [7])	% inhibition of control activity, PI3K (Eurofins) (PI3K [8])	% control, VEGFR2 (DiscoverX) (VEGFR2; listed as K001MM009)	% control, ErbB2 (DiscoverX) (ErbB2 [2]; listed as K001MM009)	% control, BRAF (DiscoverX) (BRAF [3]; listed as K001MM009)	SMILES
98 % control	100 % control	90 % control	100 % control	100 % control	100 % control	99 % control	100 % control	100 % control	2.4 (14.7) % inhibition	-3.4 (1.0) % inhibition	-13.7 (10.5) % inhibition	1.8 (4.4) % inhibition				Cc1ccc(-n2cnnn2)cc1NC(=O)NC1CC1 [DS44245]
100 % control	100 % control	84 % control	100 % control	91 % control	100 % control	100 % control	100 % control	94 % control	4.4 (14.0) % inhibition	10.5 (23.6) % inhibition	-20.8 (0.4) % inhibition	0.4 (1.7) % inhibition	98 % control	98 % control	96 % control	Cc1ccc(-n2cnnn2)cc1NC(=O)NCC1CC1 [DS44738]
100 % control	99 % control	97 % control	100 % control	100 % control	100 % control	100 % control	100 % control	87 % control	7.8 (3.3) % inhibition	5.8 (0.2) % inhibition	-22.9 (4.9) % inhibition	0.2 (3.6) % inhibition				CCc1nnc(NC(=O)c2nn(-c3ccc(C)cc3)ccc2=O)s1 [DS59212]
